Test results: US20190336486A1, “METHODS FOR TREATING CANCER AND METABOLIC SYNDROME” (GLAX LLC, priority 2018, published 2019)

Experiments:
Assay type in all cases: cell-based
brain CSCs [1] = assay: Colony formation by brain CSCs (FIG. 8)
prostate cancer cells = assay: Cell proliferation of prostate cancer cells (FIG. 13)
[2] = test system: human normal lung epithelial cells (Beas 2B); assay: Cell proliferation of normal lung epithelial cells (FIG. 9)
glioblastoma cell lines = assay: Cell proliferation of glioblastoma cell lines (FIG. 7)
lung cancer cells (A549) = assay: Cell proliferation of lung cancer cells (FIG. 9)
colorectal CSCs = assay: Cell proliferation of colorectal CSCs (FIG. 11)
lung cancer cells = assay: Colony formation by lung cancer cells (FIG. 10)
glioblastoma cells = assay: Colony formation by glioblastoma cells (FIG. 8)
breast cancer cells = assay: Cell proliferation of breast cancer cells (FIG. 12)
brain CSCs [3] = assay: Cell proliferation of brain CSCs (FIG. 7)

Which results are given for `Nc1nc(CC(=O)Nc2ccc(CCNC[C@H](O)c3ccccc3)cc2)cs1` [Mirabegron]?
colony formation (brain CSCs [1]): inhibits colony formation; cell proliferation (prostate cancer cells): inhibits cell proliferation; cell proliferation [2]: has no effect; cell proliferation (glioblastoma cell lines): inhibits cell proliferation; cell proliferation (lung cancer cells (A549)): inhibits cell proliferation; cell proliferation (colorectal CSCs): inhibits cell proliferation; colony formation (lung cancer cells): inhibits colony formation; colony formation (glioblastoma cells): inhibits colony formation; cell proliferation (breast cancer cells): inhibits cell proliferation; cell proliferation (brain CSCs [3]): inhibits cell proliferation
